What is called IC50 is the concentration that gives 50% inhibition.

For this assay, the system named is ADP-stimulated platelets. Kind of assay: ADP-stimulated platelet aggregation assay (gel-filtered human platelets). Format: cell-based. Particulars: ADP-stimulated gel-filtered human platelets (2×10^8 per ml), fibrinogen 100 ug/ml, Ca^2+ 1 mM, 10 mM ADP, 37° C., read-out: IC50 (inhibition of aggregation by 50% relative to a control). The source says: The activity of these fibrinogen receptor antagonists is illustrated below. One test used to evaluate fibrinogen receptor antagonist activity is based on evaluation of inhibition of ADP-stimulated platelets. Aggregation requires that fibrinogen bind to and occupy the platelet fibrinogen receptor site. Inhibitors of fibrinogen binding inhibit aggregation. In the ADP-stimulated platelet aggregation assay used to determine inhibition associated with these fibrinogen receptor antagonists, human platelets are isolated from fresh blood, collected into acid citrate/dextrose by differential centrifugation followed by gel filtration on Sepharose 2B in divalent ion-free Tyrode's buffer (pH 7.4) containing 2% bovine serum albumin.
Platelet aggregation is measured at 37° C. in a Chronolog aggregometer. The reaction mixture contains gel-filtered human platelets (2×10^8 per ml), fibrinogen (100 micrograms per ml (ug/ml)), Ca^2+ (1 mM), and the fibrinogen receptor antagonists tested. The aggregation is initiated by adding 10 mM ADP 1 minute after the other components are added. The reaction is then allowed to proceed for at least 2 minutes. The extent of inhibition of aggregation is expressed as the percentage of the rate of aggregation observed in the absence of inhibitor. The IC50 is the dose of a particular compound inhibiting aggregation by 50% relative to a control lacking the compound. […]

Consider `C[C@H](CC(=O)O)NC(=O)CN1CCCC(CCC2CCNCC2)C1=O` (stereo partly shown), for which the IC50 was found to be 100 µM.

These data come from patent US5686607A, “Pyridyl ethylation of lactam derivatives” (Merck & Co., Inc., priority 1996, dated 1997).
